Assay results from publication PMC10562414, “GLP-1R signaling neighborhoods associate with the susceptibility to adverse drug reactions of incretin mimetics” (Nature Communications, 2023).

Assays:
GLP-1R [1] = target: T1, GLP-1R (Homo sapiens, UniProt P43220); assay: ebBRET pathway activation (15 pathways), Supplementary Fig. 14; compartment not given; type: cell-based
[2] = system: GLP-1R-expressing HEK293 cells + Dyngo-4A (phosphoproteome); assay: Phosphoproteomics, GLP-1R-transfected cells with internalization inhibitor Dyngo-4A, 30 min; type: cell-based, human; conditions: 1 μM, 30 min, vs vehicle, n = 3
Method: P values were calculated by a two-sided unpaired t-test.
HEK293 cells (350,000 cells/mL) were transfected in suspension using 3 μg of linear PEI (MW 25,000) per 1 μg of plasmid DNA and seeded onto poly-D-lysine-coated 60 mm dishes at a density of 1,750,000 cells per dish. After a 24-h incubation, cells were washed twice with PBS and placed in starvation media (DMEM with penicillin/streptomycin). After a 48-h incubation, cells were washed twice with HBSS and maintained in the same buffer. […] Cell extracts were prepared as previously described[64]–[66]. In short, 200 μL of the lysis buffer preheated at 95 °C (4% sodium dodecyl sulfate in 50 mM Tris adjusted to pH 8.5) was added to the cells. The samples were then denatured at 95 °C for 10 min, placed on ice and then sonicated using a probe sonicator (3 sec on, 3 sec off pulse, 1 min, 30% amplitude) (Branson). Lysate protein concentration was determined using the Pierce bicinchoninic acid assay kit (Thermo Fisher Scientific) according to the manufacturer’s instructions. The lysates were reduced using 5 mM dithiothreitol for 1 h at room temperature and alkylated using 15 mM iodoacetamide for 1 h at room temperature in the dark. Proteins were precipitated and digested on beads using MagReSyn Amine magnetic beads (ReSyn Biosciences) according to the manufacturer’s instructions. Protein digestion was conducted overnight at 37 °C with lysyl endopeptidase (LysC, Wako) (1:150 LysC/protein, w/w) and trypsin (1:300 trypsin/protein, w/w). 20% TFA, 2 M glycolic acid in 80% ACN were added to the samples at a 1:1 ratio for phosphopeptide enrichment using MagReSyn TiO2 magnetic beads (ReSyn Biosciences) according to the manufacturer’s instructions. The enriched phosphopeptides were dried overnight in a SpeedVac, resuspended into 5% formic acid (FA), desalted using StageTip (Thermo Fisher Scientific) according to the manufacturer’s instructions and dried in a SpeedVac. The experiment was performed in biological triplicates.
All parameters and settings regarding the acquisition of the proteomics data can be found in Supplementary Data 11, 12. For data acquisition, the instrument was set to peptide mode, with a trapping pressure set as low (2mTorr). An EASY-Spray Source (Thermo Fisher Scientific) was used and the column temperature was maintained with the integrated, temperature-controlled heater at 55 °C throughout the experiment. For the data presented in Fig. 5d, the column was heated at 50 °C following the manufacturer’s instructions (IonOpticks).
Acquired raw files were converted to mzML format by MSConvert (version 3.0.21258)[67] applying peak picking of the mass spectra with the vendor-provided algorithm (Thermo Fisher Scientific). The mzML files were analyzed using the FragPipe GUI v18 for both library and DIA search. […] Trypsin with up to 2 missed cleavages was set as digestion enzyme, oxidation of methionine, acetylation of the N-terminus and phosphorylation on serine, threonine and tyrosine (maximal occurrence was set to three) were set as variable modifications. Carbamidomethylation of cysteine residues was set as a fixed modification. Peptide length was restricted to 7 to 50 amino acids, and 500 to 5000 Da. The precursor tolerance was set to ±20 ppm, fragment mass tolerance to 20 ppm and MSBooster was enabled. The resulting peptide-spectrum matches were adjusted to a 1% false discovery rate with Percolator[69] as part of the Philosopher toolkit (v4.4)[70] and converted to a spectra library. DIA files were analyzed by DIA-NN 1.8.1[71], [72] using the previously generated library and monitor-command mode. Peptide quantification was performed based on the fragment elution profiles from the MS2 level (area under the curve).
All further data processing was performed in R (version 4.2.1). Only phosphopeptides with a localization score of at least 0.75 were considered for further analysis. […]

GLP-1R [3] = target: T1, GLP-1R; assay: Inverted Gini coefficients for pathway selectivity (efficacy, potency) per compartment
Method: Inverted Gini coefficients depict differences in drug-induced pathway selectivity for efficacy and potency. Inverted Gini coefficients were calculated to compare the similarities among the 15 tested pathways (Gs, Gq, G11 , G14, G15, G12, G13, Gi1, Gi2, Gi3, GoA, GoB, Gz, GRK/Gb g and bARR) for efficacy (a) and potency (b) across the four compartments included in this study (PM, EE, GA, ER) where 1 represents equality and 0 represents dissimilarity.

T1 sequence (P43220 24-463): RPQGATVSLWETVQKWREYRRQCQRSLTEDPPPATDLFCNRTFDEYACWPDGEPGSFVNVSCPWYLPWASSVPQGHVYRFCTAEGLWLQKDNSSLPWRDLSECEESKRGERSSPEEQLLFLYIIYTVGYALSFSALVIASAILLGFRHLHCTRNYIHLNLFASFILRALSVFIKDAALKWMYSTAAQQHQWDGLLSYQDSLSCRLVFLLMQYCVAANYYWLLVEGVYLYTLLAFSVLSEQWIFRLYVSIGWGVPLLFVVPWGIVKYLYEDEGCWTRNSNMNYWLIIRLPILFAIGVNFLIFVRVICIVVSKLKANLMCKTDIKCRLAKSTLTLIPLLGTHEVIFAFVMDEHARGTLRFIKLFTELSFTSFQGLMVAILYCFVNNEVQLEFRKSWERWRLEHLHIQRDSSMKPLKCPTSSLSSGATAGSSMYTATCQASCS

SMILES: N#Cc1ccc(COc2cccc(C3CCN(Cc4nc5ccc(C(=O)O)cc5n4C[C@@H]4CCO4)CC3)n2)c(F)c1 [Danuglipron]
- Efficacy (normalized), GRK2/Gβγ (GLP-1R [1]; GRK2/Gβγ, Supplementary Fig. 14a, normalized): 0
- Efficacy (normalized), Gα11 (GLP-1R [1]; Gα11, Supplementary Fig. 14a, normalized): 0
- Potency (logEC50), Gα11 (GLP-1R [1]; Gα11, Supplementary Fig. 14b): 0
- Efficacy (normalized), Gα12 (GLP-1R [1]; Gα12, Supplementary Fig. 14a, normalized): 0
- Potency (logEC50), Gα12 (GLP-1R [1]; Gα12, Supplementary Fig. 14b): 0
- Efficacy (normalized), Gα13 (GLP-1R [1]; Gα13, Supplementary Fig. 14a, normalized): 0
- Potency (logEC50), Gα13 (GLP-1R [1]; Gα13, Supplementary Fig. 14b): 0
- Efficacy (normalized), Gα14 (GLP-1R [1]; Gα14, Supplementary Fig. 14a, normalized): 0
- Potency (logEC50), Gα14 (GLP-1R [1]; Gα14, Supplementary Fig. 14b): 0
- Efficacy (normalized), Gα15 (GLP-1R [1]; Gα15, Supplementary Fig. 14a, normalized): 0
- Potency (logEC50), Gα15 (GLP-1R [1]; Gα15, Supplementary Fig. 14b): 0
- Efficacy (normalized), Gαi1 (GLP-1R [1]; Gαi1, Supplementary Fig. 14a, normalized): 0
- Potency (logEC50), Gαi1 (GLP-1R [1]; Gαi1, Supplementary Fig. 14b): 0
- Efficacy (normalized), Gαi2 (GLP-1R [1]; Gαi2, Supplementary Fig. 14a, normalized): 0
- Potency (logEC50), Gαi2 (GLP-1R [1]; Gαi2, Supplementary Fig. 14b): 0
- Efficacy (normalized), Gαi3 (GLP-1R [1]; Gαi3, Supplementary Fig. 14a, normalized): 0
- Potency (logEC50), Gαi3 (GLP-1R [1]; Gαi3, Supplementary Fig. 14b): 0
- Efficacy (normalized), GαoA (GLP-1R [1]; GαoA, Supplementary Fig. 14a, normalized): 0
- Potency (logEC50), GαoA (GLP-1R [1]; GαoA, Supplementary Fig. 14b): 0
- Efficacy (normalized), GαoB (GLP-1R [1]; GαoB, Supplementary Fig. 14a, normalized): 0
- Potency (logEC50), GαoB (GLP-1R [1]; GαoB, Supplementary Fig. 14b): 0
- Efficacy (normalized), Gαq (GLP-1R [1]; Gαq, Supplementary Fig. 14a, normalized): 0
- Potency (logEC50), Gαq (GLP-1R [1]; Gαq, Supplementary Fig. 14b): 0
- Efficacy (normalized), Gαs (GLP-1R [1]; Gαs, Supplementary Fig. 14a, normalized): 0.8077
- Potency (logEC50), Gαs (GLP-1R [1]; Gαs, Supplementary Fig. 14b): 0.7638
- Efficacy (normalized), Gαz (GLP-1R [1]; Gαz, Supplementary Fig. 14a, normalized): 1
- Potency (logEC50), Gαz (GLP-1R [1]; Gαz, Supplementary Fig. 14b): 0.517
- Efficacy (normalized), βARR2 (GLP-1R [1]; βARR2, Supplementary Fig. 14a, normalized): 0.4942
- Potency (logEC50), βARR2 (GLP-1R [1]; βARR2, Supplementary Fig. 14b): 0.4339
- log2.foldchange, PABPN1 S19 ([2]; Dyngo internalization inhibitor (50 μM, 30 min pre), p 0.975742): 0.005523
- log2.foldchange, EIF3J S13 ([2]; Dyngo internalization inhibitor, p 0.0121456 (passed all criteria)): 2
- log2.foldchange, EIF3J S11;S13 ([2]; Dyngo internalization inhibitor, p 0.107013): 0.1859
- log2.foldchange, VPS51 S18 ([2]; Dyngo internalization inhibitor, p 0.460124): -0.1867
- log2.foldchange, POLE4 S9;T11 ([2]; Dyngo internalization inhibitor, p 0.765877): -0.2937
- 1 - Gini (GLP-1R [3]; Early endosomes, Supplementary Fig. 18a): 0.2929
- 1 - Gini (GLP-1R [3]; Early endosomes, Supplementary Fig. 18b): 0.7742
- 1 - Gini (GLP-1R [3]; Endoplasmic reticulum, Supplementary Fig. 18a): 0.09
- 1 - Gini (GLP-1R [3]; Endoplasmic reticulum, Supplementary Fig. 18b): 0.8902
- 1 - Gini (GLP-1R [3]; Golgi apparatus, Supplementary Fig. 18a): 0.1115
- 1 - Gini (GLP-1R [3]; Golgi apparatus, Supplementary Fig. 18b): 0.854
- 1 - Gini (GLP-1R [3]; Plasma membrane, Supplementary Fig. 18a): 0.403
- 1 - Gini (GLP-1R [3]; Plasma membrane, Supplementary Fig. 18b): 0.7941
